These are literature values, as cited in patent US20050203299A1 (priority 2003, published 2005).

Data set [1] deals with T1, serotonin 5-HT2C receptor (Homo sapiens, UniProt P28335).
T1 sequence (P28335 33-458): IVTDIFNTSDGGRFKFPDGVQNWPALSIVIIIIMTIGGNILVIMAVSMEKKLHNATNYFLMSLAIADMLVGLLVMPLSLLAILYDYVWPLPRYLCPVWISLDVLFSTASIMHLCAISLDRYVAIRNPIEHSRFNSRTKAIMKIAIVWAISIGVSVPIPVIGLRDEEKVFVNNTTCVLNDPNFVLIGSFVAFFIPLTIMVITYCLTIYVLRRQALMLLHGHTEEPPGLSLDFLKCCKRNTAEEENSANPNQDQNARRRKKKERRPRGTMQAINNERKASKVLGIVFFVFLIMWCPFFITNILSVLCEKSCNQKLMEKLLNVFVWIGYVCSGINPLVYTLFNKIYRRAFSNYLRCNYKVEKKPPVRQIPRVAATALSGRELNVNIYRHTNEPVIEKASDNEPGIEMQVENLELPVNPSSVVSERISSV

The target of data set [2] is serotonin 5-HT2A receptor (Homo sapiens, UniProt P28223).
For the next data set, the target named is serotonin reuptake site (Homo sapiens, UniProt P31645).
Data set [3] addresses T2, serotonin 5-HT1A receptor (Homo sapiens, UniProt P08908).
T2 sequence (P08908 1-422): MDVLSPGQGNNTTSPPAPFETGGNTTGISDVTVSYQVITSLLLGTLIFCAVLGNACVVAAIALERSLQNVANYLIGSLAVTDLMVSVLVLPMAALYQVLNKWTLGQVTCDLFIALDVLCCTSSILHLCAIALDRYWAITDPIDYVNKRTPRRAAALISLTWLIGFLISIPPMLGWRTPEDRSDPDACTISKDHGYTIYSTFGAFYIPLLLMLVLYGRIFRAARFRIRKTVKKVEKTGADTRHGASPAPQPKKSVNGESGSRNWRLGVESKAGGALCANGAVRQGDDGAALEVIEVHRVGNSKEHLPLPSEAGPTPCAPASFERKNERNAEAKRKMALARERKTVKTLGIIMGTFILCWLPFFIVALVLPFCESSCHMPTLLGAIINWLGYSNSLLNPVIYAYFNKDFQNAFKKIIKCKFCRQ

Data set [4] concerns cholinergic muscarinic receptors.
The target in a further data set is histamine H1 receptor (Homo sapiens, UniProt P35367).
The conditions of data set [5]: prepared by recrystallization from ethanol or by heating aripiprazole hydrate at 80° C.; according to WO 03/26659.

Chain of histamine H1 receptor (P35367 whole entry): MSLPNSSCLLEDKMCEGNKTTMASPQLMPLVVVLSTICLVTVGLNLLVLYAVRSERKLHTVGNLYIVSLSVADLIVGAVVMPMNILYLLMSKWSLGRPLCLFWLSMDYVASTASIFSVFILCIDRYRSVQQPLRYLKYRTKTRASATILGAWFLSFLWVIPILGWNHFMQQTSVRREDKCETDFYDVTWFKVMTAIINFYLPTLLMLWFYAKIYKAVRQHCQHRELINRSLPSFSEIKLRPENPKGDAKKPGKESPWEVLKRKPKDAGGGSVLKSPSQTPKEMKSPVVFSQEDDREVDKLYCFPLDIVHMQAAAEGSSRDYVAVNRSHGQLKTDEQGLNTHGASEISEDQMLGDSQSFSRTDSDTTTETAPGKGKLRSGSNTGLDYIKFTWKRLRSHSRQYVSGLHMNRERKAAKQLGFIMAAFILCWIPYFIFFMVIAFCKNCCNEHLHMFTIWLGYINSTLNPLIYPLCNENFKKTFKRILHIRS
Chain of serotonin reuptake site (P31645 whole entry): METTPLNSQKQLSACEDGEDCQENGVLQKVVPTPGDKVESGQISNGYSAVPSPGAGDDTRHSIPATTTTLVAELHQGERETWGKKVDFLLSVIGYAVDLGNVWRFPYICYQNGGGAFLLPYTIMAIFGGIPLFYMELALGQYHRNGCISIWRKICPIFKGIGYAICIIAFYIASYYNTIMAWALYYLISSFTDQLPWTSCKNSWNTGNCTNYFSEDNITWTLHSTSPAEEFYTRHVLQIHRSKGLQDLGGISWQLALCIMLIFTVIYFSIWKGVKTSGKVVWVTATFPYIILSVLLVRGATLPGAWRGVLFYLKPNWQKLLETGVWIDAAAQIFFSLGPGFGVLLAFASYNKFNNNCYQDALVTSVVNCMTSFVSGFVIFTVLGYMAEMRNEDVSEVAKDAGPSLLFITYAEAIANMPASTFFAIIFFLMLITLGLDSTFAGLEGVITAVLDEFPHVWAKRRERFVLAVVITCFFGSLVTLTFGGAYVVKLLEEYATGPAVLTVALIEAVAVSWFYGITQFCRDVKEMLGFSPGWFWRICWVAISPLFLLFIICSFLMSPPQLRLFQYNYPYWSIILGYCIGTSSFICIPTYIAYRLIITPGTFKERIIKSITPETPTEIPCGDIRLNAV
Chain of serotonin 5-HT2A receptor (P28223 whole entry): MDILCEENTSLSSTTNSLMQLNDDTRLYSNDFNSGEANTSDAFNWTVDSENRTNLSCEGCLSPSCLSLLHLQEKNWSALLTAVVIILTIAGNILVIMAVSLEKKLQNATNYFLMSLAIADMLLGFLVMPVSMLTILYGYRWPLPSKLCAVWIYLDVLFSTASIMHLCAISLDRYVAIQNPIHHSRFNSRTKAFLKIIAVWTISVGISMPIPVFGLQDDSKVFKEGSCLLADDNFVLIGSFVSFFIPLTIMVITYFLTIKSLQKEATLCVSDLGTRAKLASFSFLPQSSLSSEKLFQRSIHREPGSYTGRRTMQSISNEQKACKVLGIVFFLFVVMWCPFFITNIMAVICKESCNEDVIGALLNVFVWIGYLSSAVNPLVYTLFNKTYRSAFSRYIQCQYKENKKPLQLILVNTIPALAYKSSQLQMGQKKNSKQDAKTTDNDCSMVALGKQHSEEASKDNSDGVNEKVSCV

In the case of `O=C1CCc2ccc(OCCCCN3CCN(c4cccc(Cl)c4Cl)CC3)cc2N1` [Aripiprazole], the “affinity for α1-adrenergic receptor” value with α1-adrenergic receptor is on record as “moderate affinity”. The “affinity for serotonin 5-HT2C receptor” value in data set [1] is “moderate affinity”. Also, the “affinity for serotonin 5-HT2A receptor” value in data set [2] was “high affinity”. Besides, the “affinity for serotonin reuptake site” value at serotonin reuptake site is “moderate affinity”. Besides, the “affinity for serotonin 5-HT1A receptor” value in data set [3] is given as “high affinity”. The “affinity for cholinergic muscarinic receptors” value in data set [4] is on record as “no appreciable affinity”. The “affinity for histamine H1 receptor” value at histamine H1 receptor is reported as “moderate affinity”.

Take `O=C1CCc2ccc(OCCCCN3CCN(c4cccc(Cl)c4Cl)CC3)cc2N1` [anhydride aripiprazole, aripiprazole]: the hygroscopicity entry in data set [5] is “significantly hygroscopic”.
